Laboratory results taken from PMC9321930, “Modelling the Human Blood–Brain Barrier in Huntington Disease” (International Journal of Molecular Sciences, 2022).
Where two headings read alike, the source gives them in different places. Blank lines part the entries; values can stand above or below the compound they belong to.

Tests used:
[1] = test system: all iBMECs; assay: Inhibition of substrate transport by transporter inhibitors, all iBMECs; type: cell-based, human
Experimental: (§1) The measurement of TEER, transport studies, and the derivation of permeability coefficients were carried out as reported. In each filter, a paracellular marker (radiolabelled sucrose or LY) was added as internal control of the tightness of the monolayer. The amounts of radiotracer and fluorescent tracers were determined by liquid scintillation (Top Count-NXT, Microplate Scintillation and Luminescence counter from Perkin Elmer, Milan, Italy) and fluorescence spectrophotometry (SAFIRE TECAN, Microplate Fluorescence reader, Männedorf, Switzerland), respectively. In efflux and influx transport assays, before the addition of the compounds, filters were pre-incubated for 15 min at 37 °C with or without inhibitors and/or substrates: 2 µM elacridar (PGP inhibition), 2 µM of KO143 (BCRP inhibition), 10 µM JPH203 (LAT-1 inhibition), and 200 µM of phloretin (GLUT inhibition). Each test compound was assayed in triplicates. Transferrin from Human Serum, Alexa Fluor™ 594 Conjugate (T13343 Invitrogen™ from Thermo Fisher, Monza, Italy) was incubated (2.5 µM) in HBSS-20 mM Hepes pH 7.4 containing 1% BSA for 2 h, at 37 °C, and 5% CO2 and on ice at 4 °C. At the end of the incubation, aliquots from both compartments were collected and the fluorescent tracer was quantified.

[2] = Table S4; cited from earlier work
[3] = Transport assay (permeability) across iBMEC_71Q transwell BBB model; settings: female, human
[4] = Transport assay (permeability) across iBMEC_33Q transwell BBB model; settings: female, human
[5] = Transport assay (permeability) across iBMEC_109Q transwell BBB model; settings: female, human
[6] = test system: GLUT; assay: in vitro; settings: female, human
[7] = test system: iBMEC_71Q; assay: Transport assay (permeability) across iBMEC_71Q transwell BBB model; settings: for Permeability iBMEC_71Q: Table 1, compound alone, mean ± SE, n > 6, compounds marked ^a calculated from Ptotal
[8] = test system: iBMEC_33Q; assay: Transport assay (permeability) across iBMEC_33Q transwell BBB model; settings: for Permeability iBMEC_33Q: Table 1, compound alone, mean ± SE, n > 6, compounds marked ^a calculated from Ptotal
[9] = test system: iBMEC_109Q; assay: Transport assay (permeability) across iBMEC_109Q transwell BBB model; settings: for Permeability iBMEC_109Q: Table 1, compound alone, mean ± SE, n > 6, compounds marked ^a calculated from Ptotal
[10] = test system: iBMEC_109Q
[11] = test system: iBMEC_71Q
[12] = test system: iBMEC_33Q
[13] = test system: iBMEC_109Q; assay: TNFα treatment, inflammatory gene expression (qRT-PCR), iBMEC_109Q; type: cell-based, human; settings: 50 ng/mL TNFα, 48 h, versus untreated cells
Experimental: (§2) To evaluate the self-renewal capacity and the pluripotency as well as the trilineage differentiation potential, mRNA was subjected to the hPSC scorecard assay (Cat. A15872, Thermo Fisher, Monza, Italy) after RNA extraction from iPSC colonies with RNeasy mini kit (Cat. 74106, Qiagen, Hilden, Germany). cDNA was obtained with High-capacity cDNA reverse transcription kit (Cat. 4374966, Thermo Fisher, Monza, Italy). The expression of inflammatory genes after TNFα treatment was evaluated using the TaqMan™ Array Human Inflammation Panel (Cat. 4378722, Applied Biosystem, Foster City, CA, USA). qRT-PCR was performed in QuantStudio 12 K Flex (Thermo Fisher, Monza, Italy). The analysis of the hPSC score was conducted with the hPSC Score Card Panel software.
(§3) To mimic a neuroinflammatory condition, cells in transwells were treated with 50 ng/mL of TNFα for 48 h before RNA extraction.

[14] = test system: iBMEC_71Q; assay: TNFα treatment, inflammatory gene expression (qRT-PCR), iBMEC_71Q; type: cell-based, human; settings: 50 ng/mL TNFα, 48 h, versus untreated cells
Experimental: as §2, §3

[15] = test system: iBMEC_33Q; assay: TNFα treatment, inflammatory gene expression (qRT-PCR), iBMEC_33Q; type: cell-based, human; settings: 50 ng/mL TNFα, 48 h, versus untreated cells
Experimental: as §2, §3

[16] = test system: iBMECs 33Q; assay: Receptor-mediated transcytosis of fluorescent transferrin, iBMEC 33Q; type: in vitro ADME, human; settings: basal compartment after 2 h, 2.5 µM, mean ± sd
Experimental: as §1

[17] = test system: iBMECs 71Q; assay: Receptor-mediated transcytosis of fluorescent transferrin, iBMEC 71Q; type: in vitro ADME, human; settings: for Transferrin transported: 71Q, basal compartment after 2 h, 2.5 µM, mean ± sd
Experimental: as §1

[18] = test system: iBMECs 109Q; assay: Receptor-mediated transcytosis of fluorescent transferrin, iBMEC 109Q; type: in vitro ADME, human; settings: for Transferrin transported: 109Q, basal compartment after 2 h, 2.5 µM, mean ± sd
Experimental: as §1

[19] = test system: rat cerebral microcirculation; settings: cited from earlier work

Compound: Nc1cc(COc2c(Cl)cc(C[C@H](N)C(=O)O)cc2Cl)c2oc(-c3ccccc3)nc2c1 [JPH203]
- Reduction of leucine transport ([1]; 10 µM JPH203, all models): about 80%

Compound: O=C(O)c1cc(=O)c2ccccc2[nH]1 [KYNA, kynurenic acid]
- Human Kp,uu,CSF [2]: 0.024

Compound: N[C@@H](Cc1ccc(O)c(O)c1)C(=O)O [L-DOPA]
- Human Kp,uu,CSF [2]: 0.49

Compound: N=C(N)NCCC[C@H](N)C(=O)O [arginine]
- Human Kp,uu,CSF [2]: 0.28

Compound: CC(NC(C)(C)C)C(=O)c1cccc(Cl)c1 (stereo not drawn) [bupropion]
- Human Kp,uu,CSF [2]: 1.11

Compound: Cn1c(=O)c2c(ncn2C)n(C)c1=O [caffeine]
- Human Kp,uu,CSF [2]: 1.00

Compound: NC(=O)N1c2ccccc2C=Cc2ccccc21 [carbamazepine]
- Human Kp,uu,CSF [2]: 0.24

Compound: CN(C)CCCC1(c2ccc(F)cc2)OCc2cc(C#N)ccc21 (stereo not drawn) [citalopram]
- Human Kp,uu,CSF [2]: 1.77

- Papp [3]: 0.24 ± 0.02 ×10⁻⁶ cm/s
- Papp [4]: 0.11 ± 0.01 ×10⁻⁶ cm/s
- Papp [5]: 0.8 ± 0.01 ×10⁻⁶ cm/s
Compound: O=C1OC2(c3ccc(O)cc3Oc3cc(O)ccc32)c2ccccc21 [fluorescein]

- Papp A→B [6]: 6.3 ×10⁻⁶ cm/s
Compound: OC[C@H]1OC(O)[C@H](O)[C@@H](O)[C@@H]1O (stereo partly drawn) [glucose]
- Human Kp,uu,CSF [2]: 0.65

- Efflux Ratio ([7]; 71Q, no inhibitor): 2.0
- Permeability A-B ([7]; 71Q, no inhibitor, mean ± SD): 3.3 ± 0.1 ×10^−6 cm/s
- Permeability B-A ([7]; 71Q, no inhibitor, mean ± SD): 6.8 ± 0.6 ×10^−6 cm/s
- Permeability iBMEC_71Q [7]: 3.3 ± 0.1 ×10^−6 cm/s
- Efflux Ratio ([8]; 33Q, no inhibitor): 1.8
- Permeability A-B ([8]; 33Q, no inhibitor, mean ± SD): 4.1 ± 0.2 ×10^−6 cm/s
- Permeability B-A ([8]; 33Q, no inhibitor, mean ± SD): 7.5 ± 0.5 ×10^−6 cm/s
- Permeability iBMEC_33Q [8]: 4.1 ± 0.2 ×10^−6 cm/s
- Efflux Ratio ([9]; 109Q, no inhibitor): 1.3
- Permeability A-B ([9]; 109Q, no inhibitor, mean ± SD): 7.2 ± 0.7 ×10^−6 cm/s
- Permeability B-A ([9]; 109Q, no inhibitor, mean ± SD): 9.0 ± 0.5 ×10^−6 cm/s
- Permeability iBMEC_109Q [9]: 7.2 ± 0.7 ×10^−6 cm/s
Compound: N[C@@H](CCC(=O)O)C(=O)O [glutamate]

- Permeability iBMEC_109Q [10]: 52.6 ± 5.7 ×10^−6 cm/s
- Permeability iBMEC_71Q [11]: 53.2 ± 3.6 ×10^−6 cm/s
- Permeability iBMEC_33Q [12]: 53.8 ± 6.7 ×10^−6 cm/s
Compound: CC(O)C(=O)O (stereo not drawn) [lactate]

Compound: CC(C)C[C@H](N)C(=O)O [leucine]
- Human Kp,uu,CSF [2]: 0.12

Compound: CN(Cc1cnc2nc(N)nc(N)c2n1)c1ccc(C(=O)N[C@@H](CCC(=O)O)C(=O)O)cc1 [methotrexate]
- Human Kp,uu,CSF [2]: 0.02

- Papp [3]: 21.4 ± 1.4 ×10⁻⁶ cm/s
- Papp [4]: 25.8 ± 1.5 ×10⁻⁶ cm/s
- Papp [5]: 30.4 ± 3 ×10⁻⁶ cm/s
Compound: N[C@@H](Cc1ccccc1)C(=O)O [phenylalanine]
- Human Kp,uu,CSF [2]: 0.28

- Papp [3]: 20.9 ± 1 ×10⁻⁶ cm/s
- Papp [4]: 18.6 ± 0.2 ×10⁻⁶ cm/s
- Papp [5]: 27.7 ± 1.5 ×10⁻⁶ cm/s
Compound: O=C1NC(=O)C(c2ccccc2)(c2ccccc2)N1 [phenytoin]
- Human Kp,uu,CSF [2]: 0.19

Compound: O=C(CCc1ccc(O)cc1)c1c(O)cc(O)cc1O [phloretin]
- inhibition at 200 µM ([1]; Homo sapiens, 200 µM phloretin, both directions (apical to basal and basal to apical), all iBMECs, read-out: Inhibition of glucose transport): 50 to 60%

Compound: TNFα
- Upregulation of ICAM-1 expression after TNFα treatment ([13]; 109Q): about 2 fold
- Upregulation of VCAM1 expression after TNFα treatment ([13]; iBMEC_109Q): none
- Upregulation of ICAM-1 expression after TNFα treatment ([14]; 71Q): about 2 fold
- Upregulation of VCAM1 expression after TNFα treatment ([14]; iBMEC 71Q): more than 40 fold
- Upregulation of ICAM-1 expression after TNFα treatment ([15]; 33Q): 9 fold
- Upregulation of VCAM1 expression after TNFα treatment ([15]; iBMEC 33Q): more than 40 fold

Compound: Transferrin: Transferrin from Human Serum, Alexa Fluor 594 Conjugate
- Transferrin transported ([16]; 4°C): 2.8 ± 0.4 ng
- Transferrin transported ([16]; 37°C): 4.1 ± 0.7 ng
- Transferrin transported ([17]; 4°C): 3.7 ± 0.3 ng
- Transferrin transported ([17]; 37°C): 7.3 ± 0.4 ng
- Higher level of basal accumulation of transferrin ([17]; iBMEC_71Q versus healthy model): ~2 fold
- Transferrin transported ([18]; 4°C): 4.0 ± 1.0 ng
- Transferrin transported ([18]; 37°C): 49.0 ± 13.0 ng
- Higher level of basal accumulation of transferrin ([18]; iBMEC_109Q versus healthy model): about 5 fold

Compound: [D-Ala2]deltorphin-II
- Permeability iBMEC_71Q [7]: 0.92 ± 0.01 ×10^−6 cm/s
- Permeability iBMEC_33Q [8]: 0.77 ± 0.08 ×10^−6 cm/s
- Permeability iBMEC_109Q [9]: 1.01 ± 0.02 ×10^−6 cm/s

- Efflux Ratio [10]: 1.0
- LY permeability, time course [10]: exceeded 5 × 10^−7 cm/s
- Permeability A-B [10]: 0.70 ± 0.03 ×10^−6 cm/s
- Permeability B-A [10]: 0.70 ± 0.1 ×10^−6 cm/s
- Permeability iBMEC_109Q, paracellular markers [10]: 7.0 ± 0.3 x10^-7 cm/s
- Efflux Ratio [11]: 0.9
- LY permeability, time course [11]: ≥ 0.5 ×10⁻⁶ cm/s
- Permeability A-B [11]: 0.37 ± 0.03 ×10^−6 cm/s
- Permeability B-A [11]: 0.34 ± 0.06 ×10^−6 cm/s
- Permeability iBMEC_71Q, paracellular markers [11]: 3.7 ± 0.3 x10^-7 cm/s
- Efflux Ratio [12]: 0.9
- LY permeability, time course [12]: ≥ 0.5 ×10⁻⁶ cm/s
- Permeability A-B [12]: 0.23 ± 0.02 ×10^−6 cm/s
- Permeability B-A [12]: 0.21 ± 0.04 ×10^−6 cm/s
- Permeability iBMEC_33Q, paracellular markers [12]: 2.3 ± 0.2 x10^-7 cm/s
Compound: lucifer yellow
- Permeability P in vivo [19]: 1 − 2 × 10^−7 cm/s
